Results reported in patent US20240384350A1, “METHODS OF TREATING CANCER WITH KINASE INHIBITORS” (BOARD OF REGENTS, THE UNIVERSITY OF TEXAS SYSTEM, priority 2021, published 2024).

How the values were obtained:
Test in all cases: Ba/F3 drug screening, Cell Titer Glo, IC50 Mut/WT
Assay type in all cases: cell-based
EGFR G719S T790M = biological target: T1, EGFR G719S T790M (Homo sapiens, UniProt P00533, G719S/T790M); settings: T790M-like-3S, 72 hours
T1 construct: expressed in transfected cells; host or cells: Ba/F3

EGFR L858R S784F = biological target: T2, EGFR L858R S784F (Homo sapiens, UniProt P00533, L858R/S784F); settings: Classical-Like, 72 hours
T2 construct: expressed in transfected cells; host or cells: Ba/F3 cells, retroviral pBabe-Puro vector (vector made by GeneScript from EGFR L858R)

EGFR I740dupIPVAK = settings: PACC; I740dupIPVAK; Ba/F3; 72 hours
Method: (§1) Data represent the ratio of the IC50 value for a given TKI for cells with a PACC EGFR mutation to the IC50 value for cells with wildtype EGFR.
(§2) Ba/F3 cell generation, drug screening, and IC50 approximations. Ba/F3 cells were obtained as a gift from Dr. Gordon Mills (MD Anderson Cancer Center), and maintained in RPMI (Sigma) containing 10% FBS, 1% penicillin/streptomycin, and 10 ng/ml recombinant mIL-3 (R&D Biosystems). To establish stable Ba/F3 cell lines, Ba/F3 cells were transduced with retroviruses containing mutant EGFR plasmids for 12-24 hours.
(§3) After 48-72 hours of transduction, 2 μg/ml puromycin (Invitrogen) was added to Ba/F3 cell lines in complete RPMI. To select for EGFR positive cell lines, cells were stained with PE-EGFR (Biolegend) and sorted by FACS. After sorting, EGFR positive cells were maintained in RPMI containing 10% FBS, 1% penicillin/streptomycin, and 1 ng/ml EGF to support cell viability. Drug screening was performed as previously described^41,42. Shortly, cells were plated in 384-well plates (Greiner Bio-One) at 2000-3000 cells per well in technical triplicate. Seven different concentrations of TKIs or DMSO vehicle were added to reach a final volume of 40 μL per well. After 72 hours, 11 μL of Cell Titer Glo (Promega) was added to each well. Plates were incubated for a minimum of 10 minutes, and bioluminescence was determined using a FLUOstar OPTIMA plate reader (BMG LABTECH). Raw bioluminescence values were normalized to DMSO control treated cells, and values were plotted in GraphPad Prism. […] Drug screens were performed in technical triplicate on each plate and either duplicate or triplicate biological replicates.

EGFR Ex19del T790M L718V = biological target: T3, EGFR Ex19del T790M L718V (Homo sapiens, UniProt P00533, DEL746-750/L718V/T790M); settings: T790M-like-3S, 72 hours
T3 construct: expressed in transfected cells; host or cells: Ba/F3
Method: (§4) Data represent the ratio of the IC50 value for a given TKI for cells with a T790M-like-3S EGFR mutation to the IC50 value for cells with wildtype EGFR.
as §2, §3

EGFR L747S = biological target: T4, EGFR L747S (Homo sapiens, UniProt P00533, L747S); settings: PACC; L747S; Ba/F3; 72 hours
T4 construct: expressed in transfected cells; host or cells: Ba/F3
Method: as §1, §2, §3

EGFR L833F = biological target: T5, EGFR L833F (Homo sapiens, UniProt P00533, L833F); settings: Classical-Like, 72 hours
T5 construct: expressed in transfected cells; host or cells: Ba/F3 cells, retroviral pBabe-Puro vector

EGFR Ex19del G796S = biological target: T6, EGFR Ex19del G796S (Homo sapiens, UniProt P00533, DEL746-750/G796S); settings: PACC; Ex19del G796S; Ba/F3; 72 hours
T6 construct: expressed in transfected cells; host or cells: Ba/F3
Method: as §1, §2, §3

EGFR G719A T790M = biological target: T7, EGFR G719A T790M (Homo sapiens, UniProt P00533, G719A/T790M); settings: T790M-like-3S, 72 hours
T7 construct: expressed in transfected cells; host or cells: Ba/F3

EGFR S768dupSVD V769M = biological target: T8, EGFR S768dupSVD V769M (Homo sapiens, UniProt P00533, INS768MDS/V769M); settings: Ex20, 72 hours
T8 construct: expressed in transfected cells; host or cells: Ba/F3 cells, retroviral pBabe-Puro vector (vector made by GeneScript from EGFR S768dupSVD, c.2305G > A)

EGFR E709K L858R = biological target: T9, EGFR E709K L858R (Homo sapiens, UniProt P00533, E709K/L858R); settings: Classical-Like, 72 hours
T9 construct: expressed in transfected cells; host or cells: Ba/F3 cells, retroviral pBabe-Puro vector
Method: (§5) Data represent the ratio of the IC50 value for a given TKI for cells with a classical-like EGFR mutation to the IC50 value for cells with wildtype EGFR.
as §2
(§6) After 48-72 hours of transduction, 2 μg/ml puromycin (Invitrogen) was added to Ba/F3 cell lines in complete RPMI. To select for EGFR positive cell lines, cells were stained with PE-EGFR (Biolegend) and sorted by FACS. After sorting, EGFR positive cells were maintained in RPMI containing 10% FBS, 1% penicillin/streptomycin, and 1 ng/ml EGF to support cell viability. […] Shortly, cells were plated in 384-well plates (Greiner Bio-One) at 2000-3000 cells per well in technical triplicate. Seven different concentrations of TKIs or DMSO vehicle were added to reach a final volume of 40 μL per well. After 72 hours, 11 μL of Cell Titer Glo (Promega) was added to each well. Plates were incubated for a minimum of 10 minutes, and bioluminescence was determined using a FLUOstar OPTIMA plate reader (BMG LABTECH). Raw bioluminescence values were normalized to DMSO control treated cells, and values were plotted in GraphPad Prism. […] Drug screens were performed in technical triplicate on each plate and either duplicate or triplicate biological replicates.

EGFR S768I = biological target: T10, EGFR S768I (Homo sapiens, UniProt P00533, S768I); settings: PACC; S768I; Ba/F3; 72 hours
T10 construct: expressed in transfected cells; host or cells: Ba/F3
Method: as §1, §2
(§7) After 48-72 hours of transduction, 2 μg/ml puromycin (Invitrogen) was added to Ba/F3 cell lines in complete RPMI. To select for EGFR positive cell lines, cells were stained with PE-EGFR (Biolegend) and sorted by FACS. After sorting, EGFR positive cells were maintained in RPMI containing 10% FBS, 1% penicillin/streptomycin, and 1 ng/ml EGF to support cell viability. Drug screening was performed as previously described^41,42. Shortly, cells were plated in 384-well plates (Greiner Bio-One) at 2000-3000 cells per well in technical triplicate. Seven different concentrations of TKIs or DMSO vehicle were added to reach a final volume of 40 μL per well. After 72 hours, 11 μL of Cell Titer Glo (Promega) was added to each well. Plates were incubated for a minimum of 10 minutes, and bioluminescence was determined using a FLUOstar OPTIMA plate reader (BMG LABTECH). Raw bioluminescence values were normalized to DMSO control treated cells, and values were plotted in GraphPad Prism. […] Drug screens were performed in technical triplicate on each plate and either duplicate or triplicate biological replicates. […] Statistical differences between groups were determined by ANOVA as described in the figure legends.

EGFR K754E = biological target: T11, EGFR K754E (Homo sapiens, UniProt P00533, K754E); settings: Classical-Like, 72 hours
T11 construct: expressed in transfected cells; host or cells: Ba/F3 cells, retroviral pBabe-Puro vector

EGFR G719S = biological target: T12, EGFR G719S (Homo sapiens, UniProt P00533, G719S); settings: PACC; G719S; Ba/F3; 72 hours
T12 construct: expressed in transfected cells; host or cells: Ba/F3
Method: as §1, §2, §3

EGFR R776H = biological target: T13, EGFR R776H (Homo sapiens, UniProt P00533, R776H); settings: PACC; R776H; Ba/F3; 72 hours
T13 construct: host or cells: Ba/F3

EGFR L858R T790M V843I = biological target: T14, EGFR L858R T790M V843I (Homo sapiens, UniProt P00533, L858R/T790M/V843I); settings: T790M-like-3S, 72 hours
T14 construct: expressed in transfected cells; host or cells: Ba/F3
Method: as §4, §2, §3

EGFR Ex19del T790M C797S = biological target: T15, EGFR Ex19del T790M C797S (Homo sapiens, UniProt P00533, C797S/DEL746-750/T790M); settings: T790M-like-3R, 72 hours
T15 construct: expressed in transfected cells; host or cells: Ba/F3

EGFR G724S = biological target: T16, EGFR G724S (Homo sapiens, UniProt P00533, G724S); settings: PACC; G724S; Ba/F3; 72 hours
T16 construct: expressed in transfected cells; host or cells: Ba/F3
Method: as §1, §2, §3

EGFR V769L = biological target: T17, EGFR V769L (Homo sapiens, UniProt P00533, V769L); settings: PACC; V769L; Ba/F3; 72 hours
T17 construct: expressed in transfected cells; host or cells: Ba/F3
Method: as §1, §2, §3

EGFR E709A G719S = biological target: T18, EGFR E709A G719S (Homo sapiens, UniProt P00533, E709A/G719S); settings: PACC; E709A G719S; Ba/F3; 72 hours
T18 construct: expressed in transfected cells; host or cells: Ba/F3

EGFR D770insNPG = biological target: T19, EGFR D770insNPG (Homo sapiens, UniProt P00533, INS770NPG); settings: Ex20, 72 hours
T19 construct: expressed in transfected cells; host or cells: Ba/F3 cells, retroviral pBabe-Puro vector
Method: (§8) Data represent the ratio of the IC50 value for a given TKI for cells with an ex20ins EGFR mutation to the IC50 value for cells with wildtype EGFR.
as §2, §7

EGFR L747P = biological target: T20, EGFR L747P (Homo sapiens, UniProt P00533, L747P); settings: PACC; L747P; Ba/F3; 72 hours
T20 construct: expressed in transfected cells; host or cells: Ba/F3
Method: as §1, §2, §7

EGFR N771dupN G724S = biological target: T21, EGFR N771dupN G724S (Homo sapiens, UniProt P00533, DUP771-771/G724S); settings: Ex20, 72 hours
T21 construct: expressed in transfected cells; host or cells: Ba/F3 cells, retroviral pBabe-Puro vector (vector made by GeneScript from EGFR G724S, c.2313_2314insAAC)
Method: as §8, §2, §7

EGFR L861Q = biological target: T22, EGFR L861Q (Homo sapiens, UniProt P00533, L861Q); settings: Classical-Like, 72 hours
T22 construct: expressed in transfected cells; host or cells: Ba/F3 cells, retroviral pBabe-Puro vector
Method: as §5, §2, §6

EGFR S720P = biological target: T23, EGFR S720P (Homo sapiens, UniProt P00533, S720P); settings: Classical-Like, 72 hours
T23 construct: expressed in transfected cells; host or cells: Ba/F3 cells, retroviral pBabe-Puro vector (vector made by GeneScript from EGFR WT)

Structure (SMILES)	ratio of IC50 for cells with mutant EGFR to IC50 for cells with wildtype EGFR (Mut/WT) (EGFR G719S T790M)	ratio of IC50 for cells with mutant EGFR to IC50 for cells with wildtype EGFR (Mut/WT) (EGFR L858R S784F)	ratio of IC50 for cells with mutant EGFR to IC50 for cells with wildtype EGFR (Mut/WT) (EGFR I740dupIPVAK)	ratio of IC50 for cells with mutant EGFR to IC50 for cells with wildtype EGFR (Mut/WT) (EGFR Ex19del T790M L718V)	ratio of IC50 for cells with mutant EGFR to IC50 for cells with wildtype EGFR (Mut/WT) (EGFR L747S)	ratio of IC50 for cells with mutant EGFR to IC50 for cells with wildtype EGFR (Mut/WT) (EGFR L833F)	ratio of IC50 for cells with mutant EGFR to IC50 for cells with wildtype EGFR (Mut/WT) (EGFR Ex19del G796S)	ratio of IC50 for cells with mutant EGFR to IC50 for cells with wildtype EGFR (Mut/WT) (EGFR G719A T790M)	ratio of IC50 for cells with mutant EGFR to IC50 for cells with wildtype EGFR (Mut/WT) (EGFR S768dupSVD V769M)	ratio of IC50 for cells with mutant EGFR to IC50 for cells with wildtype EGFR (Mut/WT) (EGFR E709K L858R)	ratio of IC50 for cells with mutant EGFR to IC50 for cells with wildtype EGFR (Mut/WT) (EGFR S768I)	ratio of IC50 for cells with mutant EGFR to IC50 for cells with wildtype EGFR (Mut/WT) (EGFR K754E)	ratio of IC50 for cells with mutant EGFR to IC50 for cells with wildtype EGFR (Mut/WT) (EGFR G719S)	ratio of IC50 for cells with mutant EGFR to IC50 for cells with wildtype EGFR (Mut/WT) (EGFR R776H)	ratio of IC50 for cells with mutant EGFR to IC50 for cells with wildtype EGFR (Mut/WT) (EGFR L858R T790M V843I)	ratio of IC50 for cells with mutant EGFR to IC50 for cells with wildtype EGFR (Mut/WT) (EGFR Ex19del T790M C797S)	ratio of IC50 for cells with mutant EGFR to IC50 for cells with wildtype EGFR (Mut/WT) (EGFR G724S)	ratio of IC50 for cells with mutant EGFR to IC50 for cells with wildtype EGFR (Mut/WT) (EGFR V769L)	ratio of IC50 for cells with mutant EGFR to IC50 for cells with wildtype EGFR (Mut/WT) (EGFR E709A G719S)	ratio of IC50 for cells with mutant EGFR to IC50 for cells with wildtype EGFR (Mut/WT) (EGFR D770insNPG)	other results
COc1cc2ncnc(Nc3cccc(Cl)c3F)c2cc1OC(=O)N1CCN(C)C[C@H]1C [AZD3759]	8.021	0.01546	0.08984	4.812	0.08122	0.1249	4.084	9.625	1.659	0.02202	0.145	0.04651	0.01105	0.02185	9.625	9.625	0.01105	0.9765	0.2131	3.835	ratio of IC50 for cells with mutant EGFR to IC50 for cells with wildtype EGFR (Mut/WT) (EGFR L747P): 0.2937; ratio of IC50 for cells with mutant EGFR to IC50 for cells with wildtype EGFR (Mut/WT) (EGFR N771dupN G724S): 1.258; ratio of IC50 for cells with mutant EGFR to IC50 for cells with wildtype EGFR (Mut/WT) (EGFR L861Q): 0.08924; ratio of IC50 for cells with mutant EGFR to IC50 for cells with wildtype EGFR (Mut/WT) (EGFR S720P): 0.01834
COc1cc2ncnc(Nc3ccc(F)c(Cl)c3)c2cc1NC(=O)/C=C/CN1CCCCC1 [Dacomitinib]	3.776	0.06448	0.01376	89.62	0.006377	0.1863	0.2371	0.9195	3.097	0.007985	17.66	0.03231	0.002178	0.001367	20.06	38.03	0.2379	0.1402	0.001614	5.404	ratio of IC50 for cells with mutant EGFR to IC50 for cells with wildtype EGFR (Mut/WT) (EGFR L747P): 0.2972; ratio of IC50 for cells with mutant EGFR to IC50 for cells with wildtype EGFR (Mut/WT) (EGFR N771dupN G724S): 3.161; ratio of IC50 for cells with mutant EGFR to IC50 for cells with wildtype EGFR (Mut/WT) (EGFR L861Q): 0.002064; ratio of IC50 for cells with mutant EGFR to IC50 for cells with wildtype EGFR (Mut/WT) (EGFR S720P): 0.03879
